Data on one compound can be found in patent US20110044913A1, “8-HYDROXY-5-[(1R)-1-HYDROXY-2-[[(1R)-2-(4-METHOXYPHENYL)-1-METHYLETHYL]AMINO]ETHYL]-2(1H)-QUINOLINONE HEMI-FUMARATE” (Chiesi Farmaceutici S.p.A., priority 2009, published 2011).

Counter-ions that a name gives are not always drawn.

What all share (type): physicochemical
Data set [1] can be described thus: Solubility of the salt in different solvents.
Data set [2] can be described thus: Hygroscopicity of the salt.
Data set [3] in a line: Chemical and physical stability of the salt. The settings on record: different conditions of humidity and temperature.
A short description of data set [4]: Particle size distribution after jet milling (micronization). The following applies: micronized batch. From the text: A batch of formoterol fumarate dihydrate is milled in a nitrogen fluid jet mill apparatus MC 50 (JET Pharma S.A).
Data set [5] can be described thus: Dispersion of the micronized salt in the carrier by Near Infrared microscopy imaging (Near Imaging). The settings on record: micronized form, after 180 minute of mixing. On the procedure:
As it can be appreciated from Table 6, upon milling, the salt of the present invention remains crystalline and its chemical purity is not altered. The batch is then added to a carrier made of coarser particles.
The homogeneous dispersion of the active ingredient in the powder, and the absence of aggregates of active particles is established using a Near Infrared spectrophotometer equipped with a microscopy imaging system (Near Imaging).

For the compound `COc1ccc(CC(C)NCC(O)c2ccc(O)c3[nH]c(=O)ccc23)cc1` [Carmoterol hemi-fumarate, 8-hydroxy-5-[(1R)-1-hydroxy-2-[[(1R)-2-(4-methoxyphenyl)-1-methylethyl]amino]ethyl]-2(1H)-quinolinone (carmoterol) hemi-fumarate salt], in data set [1] (HFA propellants), the “Solubility in HFA propellants” value is “practically insoluble”. For the same compound, in data set [1] (solvent: Vertrel XF (2,3-dihydodecafluoropentane, simulates HFA propellants), l.o.d. = limit of detection), the “Solubility in Vertrel XF” value is on record as “<l.o.d.^(2)”. Also, the “Solubility in Acetone” value in data set [1] (solvent: acetone) is on record as 0.008 %, w/v. For the same compound, in data set [1] (solvent: ethanol), the “Solubility in Ethanol” value was 0.27 %, w/v. Further, in data set [1] (solvent: water), the solubility – broadly, how much of the substance goes into solution per volume – came to 13.6 mg/mL. The Hygroscopicity result in data set [2] is “non-hygroscopic”. The “Chemical and physical stability” value in data set [3] was “chemically and physically stable”. Further, in data set [4], the “Particle size d (v, 0.1)” value worked out at 0.79 μm; the “Particle size d (v, 0.5)” value is listed as 3.73 μm; the “Particle size d (v, 0.9)” value was 7.58 μm. Besides, the “Agglomerates after mixing with carrier” value in data set [5] is “no agglomerates are observed”.
